Key:
[1] = test system: green peach aphid (Myzus persicae); experiment: Test 1: control of green peach aphid through systemic means (artificial diet, 96-well microtiter plates); type: in vivo; conditions: 3 days
Description: If present, synergism can be described as an interaction where the combined effect of two or more compounds is greater than the sum of the individual effects of each of the compounds. The presence of a synergistic effect in terms of percent control, between two mixing partners (X and Y) can be calculated using the Colby equation (Colby, S. R., 1967, Calculating Synergistic and Antagonistic Responses in Herbicide Combinations, Weeds, 15, 20-22):
When the observed combined control effect is greater than the expected combined control effect (E), then the combined effect is synergistic.
For evaluating control of green peach aphid (Myzus persicae) through systemic means the test unit consisted of 96-well-microtiter plates containing liquid artificial diet under an artificial membrane.
The compounds or mixtures were formulated using a solution containing 75% water and 25% DMSO. Different concentrations of formulated compounds or mixtures were pipetted into the aphid diet, using a custom built pipetter, at two replications.
For experimental mixtures in these tests identical volumes of both mixing partners at the desired concentrations respectively, were mixed together.
After application, 5-8 adult aphids were placed on the artificial membrane inside the microtiter plate wells. The aphids were then allowed to suck on the treated aphid diet and incubated at […], 50±5% RH for 3 days. Aphid mortality and fecundity was then visually assessed. For the mixture tested the results are listed in the tables for Example E2-1 and E2-2.

[2] = test system: Diamide-resistant diamond back moth (Plutella xylostella), Cebu strain; conditions: third instar larvae, mortality 3 days after inoculation; comparing LC50s and LC90s
[3] = Degradation in soil; type: physicochemical; conditions: neutral sandy loam soil LUFA 5M; incubated at 27° C. and 40% of max. water-holding capacity over 90 days; DT50 referring to 20° C.; SFO or DFOP kinetics
Method: Degradation of the compound (I-B-131) and compound (I-B-33) in soil was compared. The two compounds were incubated in neutral sandy loam soil (LUFA 5M) at 27° C. and 40% of the max. water-holding capacity over a period of 90 days. Soil extraction was carried out with acetonitrile followed by acetonitrile/water (1/1) and the extracted test compounds were quantified by HPLC-MS. The following DT50 values (referring to 20° C.) were obtained assuming single first order (SFO) or double first order in parallel (DFOP) kinetics: […]

[4] = test system: Neonicotinoid resistant strain of the brown planthopper (Nilaparvata lugens); experiment: B2 b) Nilaparvata lugens larvicide, feeding/contact activity, preventive on rice seedlings; Resistance Factor RF80; type: in vivo; conditions: IND3 strain (neonicotinoid resistant) vs standard screening strain of Nilaparvata lugens; lowest concentration giving greater than 80% mortality
Description: (§1) The level of resistance and therefore the impact on the performance of the insecticide can be measured by the use of a ‘Resistance Factor’. The resistance factor can be calculated by dividing the concentration of an insecticide that provides a set level of mortality (i.e. 80 percent) for the ‘resistant’ strain with the concentration of the same insecticide that provides the same level of mortality for the ‘susceptible’ insect of the same species and life-stage. Although there are no set rules, a low value (1-10) indicates no cross-resistance and only natural levels of variation and a high value (50+) provides strong evidence of cross-resistance.
b) Neonicotinoid Resistant Strain of the Brown Planthopper (Nilaparvata lugens)
Nilaparvata lugens strains utilised: • Standard screening strain of Nilaparvata lugens (Neonicotinoid susceptible) • IND3 strain of Nilaparvata lugens (Neonicotinoid resistant) Bioassay Method: Nilaparvata lugens: Larvicide, Feeding/Contact Activity, Preventive
Rice seedlings are treated with the diluted test solutions in a turn table spray chamber. After drying, they are infested with 20 N3 nymphs. 6 and 12 days after the treatment samples are checked for mortality, growth regulation, and effects on the Fi generation.
The Resistance Factor (RF80) of different compounds is tested. […]

[5] = test system: Neonicotinoid and pyrethroid resistant strain of the green peach aphid (Myzus persicae); experiment: B2 a) Myzus persicae mixed population, contact activity, curative on pea seedlings; Resistance Factor RF80; type: in vivo; conditions: FRC-P strain (neonicotinoid resistant) vs standard screening strain of Myzus persicae; lowest concentration giving greater than 80% mortality, 6 days after treatment
Description: B2: Determination of the cross-resistance status of compounds I when applied against agronomically important pest species resistant to one or more commercially available class of insecticide.
as §1
a) Neonicotinoid and Pyrethroid Resistant Strain of the Green Peach Aphid (Myzus persicae)
Myzus persicae strains utilised: • Standard screening strain of Myzus persicae (Neonicotinoid susceptible) • FRC-P strain of Myzus persicae (Neonicotinoid resistant) Bioassay Method
Myzus persicae: mixed population, contact activity, curative on pea seedlings
Pea seedlings, infested with an aphid population of mixed ages, are treated with the test solutions in a spray chamber. 6 days after treatment, samples are checked for mortality. […]

[6] = test system: ALM07 strain (neonicotinoid and pyrethroid resistant), adult whitefly
Description: Bioassay Method Bemisia tabaci Residual Activity, Preventive Egg Lay

## CC1=NNC(=O)N(/N=C/c2cccnc2)C1 [Pymetrozine, pymetrozine]
[1]; Example E2-1, 80 ppm
  Average Control %: 0%

## Cc1cc(C(F)(C(F)(F)F)C(F)(F)F)ccc1NC(=O)c1cccc(I)c1C(=O)NC(C)(C)CS(C)(=O)=O [flubendiamide]
[2]
  Efficacy against field collected Cebu strain of Plutella xylostella: only weak efficacies

## Cc1cc(Cl)cc(C(N)=O)c1NC(=O)c1cc(C(F)(F)F)nn1-c1ncccc1Cl [I-B-131, N-(2-carbamoyl-4-chloro-6-methyl-phenyl)-2-(3-chloro-2-pyridyl)-5-(trifluoromethyl)pyrazole-3-carboxamide]
[3]
  DT50: 41 days

## CNC(=O)c1cc(Cl)cc(C)c1NC(=O)c1cc(Br)nn1-c1ncccc1Cl [I-B-33, chlorantraniliprole]
[3]
  DT50: 89 days
[1]; Example E2-2, 0.4 ppm
  Average Control %: 0%

## CN1COCN(Cc2cnc(Cl)s2)/C1=N\[N+](=O)[O-] [thiamethoxam]
[4]
  Resistance Factor (RF80): > 64
[5]
  Resistance Factor (RF80): > 250
[6]
  RF in residual mortality bioassay of adult whitefly: > 250

## CC(NC(=O)c1cc(Cl)cc(Br)c1NC(=O)c1cc(Br)nn1-c1ncccc1Cl)C1CC1 (stereo not shown) [I-A-1]
[1]; Example E2-1, 0.4 ppm
  Average Control %: 0%
[1]; Example E2-2, 0.8 ppm
  Average Control %: 0%
